According to ChEMBL document CHEMBL1132051, “4-Alkyl- and 3,4-dialkyl-1,2,3,4-tetrahydro-8-pyridono[5,6-g]quinolines: potent, nonsteroidal androgen receptor agonists” (Bioorg Med Chem Lett, 1999):

Columns and labels:
Androgen receptor [1] = biological target: T1, Androgen receptor (Homo sapiens, UniProt P10275)
T1 sequence (P10275 whole entry): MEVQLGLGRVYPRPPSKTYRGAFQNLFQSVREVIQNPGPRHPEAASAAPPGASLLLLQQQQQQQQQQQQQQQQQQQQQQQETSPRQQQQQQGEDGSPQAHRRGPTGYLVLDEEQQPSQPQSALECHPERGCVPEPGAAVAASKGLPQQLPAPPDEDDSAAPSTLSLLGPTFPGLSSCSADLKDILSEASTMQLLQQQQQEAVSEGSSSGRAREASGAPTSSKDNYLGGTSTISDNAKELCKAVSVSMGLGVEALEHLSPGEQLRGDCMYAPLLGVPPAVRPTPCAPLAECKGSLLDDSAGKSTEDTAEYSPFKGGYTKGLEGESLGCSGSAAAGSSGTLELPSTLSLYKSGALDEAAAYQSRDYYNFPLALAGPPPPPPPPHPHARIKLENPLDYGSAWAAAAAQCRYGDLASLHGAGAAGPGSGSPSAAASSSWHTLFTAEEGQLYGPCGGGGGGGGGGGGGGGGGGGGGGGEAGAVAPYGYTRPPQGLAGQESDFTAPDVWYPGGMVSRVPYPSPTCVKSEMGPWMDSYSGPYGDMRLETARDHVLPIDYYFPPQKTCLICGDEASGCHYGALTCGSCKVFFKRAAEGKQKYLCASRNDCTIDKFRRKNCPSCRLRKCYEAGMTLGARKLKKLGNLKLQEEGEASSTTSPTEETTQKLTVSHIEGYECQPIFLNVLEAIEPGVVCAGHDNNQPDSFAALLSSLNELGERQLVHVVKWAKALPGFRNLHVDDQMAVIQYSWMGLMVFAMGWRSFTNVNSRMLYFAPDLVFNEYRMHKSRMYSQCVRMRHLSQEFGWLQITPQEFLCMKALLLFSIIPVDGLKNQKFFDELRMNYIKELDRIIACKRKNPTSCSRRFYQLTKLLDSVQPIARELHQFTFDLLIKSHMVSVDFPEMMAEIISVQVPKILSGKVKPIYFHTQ
Description: Binding affinity to the human androgen receptor (hAR), using [3H]DHT as radioligand in a competitive binding assay

Androgen receptor [2] = biological target: T1, Androgen receptor; remark: listed apart in the source
Description: Agonist activity to the human androgen receptor (hAR) in CV-1 cells

Androgen receptor [3] = biological target: T1, Androgen receptor; test: Antagonistic activity against human androgen receptor (hAR) in CV-1 cells was determined as a function of maximal inhibition of dihydrotestosterone using cotransfection assay; format: functional, cell-based
Androgen receptor [4] = biological target: T1, Androgen receptor; remark: listed apart in the source
Description: Antagonistic activity against human androgen receptor (hAR) in CV-1 cells using cotransfection assay

Structure (SMILES): CC1c2cc3c(C(F)(F)F)cc(O)nc3cc2NC[C@H]1C (stereo partly specified)
- Ki (Androgen receptor [1]): 8 nM
- EC50 (Androgen receptor [2]): 22 nM
- IC50 (Androgen receptor [3]): > 10000 nM

Structure (SMILES): C[C@@H]1CNc2cc3[nH]c(=O)cc(C(F)(F)F)c3cc2[C@@H]1CCC(F)(F)F
- Ki (Androgen receptor [1]): > 1000 nM
- IC50 (Androgen receptor [4]): 63 nM
- EC50 (Androgen receptor [2]): 82 nM

Structure (SMILES): CC1(C)CCNc2cc3[nH]c(=O)cc(C(F)(F)F)c3cc21
- Ki (Androgen receptor [1]): 12 nM
- IC50 (Androgen receptor [4]): 16 nM
- EC50 (Androgen receptor [2]): 68 nM

Structure (SMILES): CCC1CCN(C)c2cc3[nH]c(=O)cc(C(F)(F)F)c3cc21 (stereo unspecified)
- Ki (Androgen receptor [1]): 630 nM
- IC50 (Androgen receptor [4]): > 10000 nM
- EC50 (Androgen receptor [2]): 158 nM

Structure (SMILES): CC(C)C1CCNc2cc3[nH]c(=O)cc(C(F)(F)F)c3cc21 (stereo unspecified)
- Ki (Androgen receptor [1]): 13 nM
- IC50 (Androgen receptor [4]): > 10000 nM
- EC50 (Androgen receptor [2]): 3 nM

Structure (SMILES): CCC1CCN(C=O)c2cc3nc(O)cc(C(F)(F)F)c3cc21 (stereo unspecified)
- Ki (Androgen receptor [1]): > 1000 nM
- EC50 (Androgen receptor [2]): 137 nM
- IC50 (Androgen receptor [3]): > 10000 nM

Structure (SMILES): CCCC1CCNc2cc3nc(O)cc(C(F)(F)F)c3cc21 (stereo unspecified)
- Ki (Androgen receptor [1]): 29 nM
- IC50 (Androgen receptor [4]): > 10000 nM
- EC50 (Androgen receptor [2]): 19 nM

Structure (SMILES): CC1CCNc2cc3nc(O)cc(C(F)(F)F)c3cc21 (stereo unspecified)
- Ki (Androgen receptor [1]): 9 nM
- IC50 (Androgen receptor [4]): 259 nM
- EC50 (Androgen receptor [2]): 15 nM

Structure (SMILES): CCC1(CC)CCNc2cc3nc(O)cc(C(F)(F)F)c3cc21
- Ki (Androgen receptor [1]): 58 nM
- IC50 (Androgen receptor [4]): 73 nM
- EC50 (Androgen receptor [2]): > 10000 nM

Structure (SMILES): Oc1cc(C(F)(F)F)c2cc3c(cc2n1)NCCC3
- Ki (Androgen receptor [1]): 19 nM
- IC50 (Androgen receptor [4]): 12 nM
- EC50 (Androgen receptor [2]): 317 nM

Structure (SMILES): CCC1CCN(C)c2cc3c(cc21)c(C(F)(F)F)cc(=O)n3C (stereo unspecified)
- Ki (Androgen receptor [1]): 263 nM
- IC50 (Androgen receptor [4]): 216 nM
- EC50 (Androgen receptor [2]): > 10000 nM

Structure (SMILES): O=c1cc(C(F)(F)F)c2cc3c(cc2[nH]1)NC[C@@H]1CCC[C@H]31
- Ki (Androgen receptor [1]): 8 nM
- IC50 (Androgen receptor [4]): > 10000 nM
- EC50 (Androgen receptor [2]): 9 nM

Structure (SMILES): Oc1cc(C(F)(F)F)c2cc3c(cc2n1)NC[C@H]1CCCC[C@H]31
- Ki (Androgen receptor [1]): 15 nM
- EC50 (Androgen receptor [2]): 2 nM
- IC50 (Androgen receptor [3]): > 10000 nM

Structure (SMILES): CC[C@H]1c2cc3c(C(F)(F)F)cc(=O)[nH]c3cc2NC[C@H]1C (relative stereo)
- Ki (Androgen receptor [1]): 27 nM
- EC50 (Androgen receptor [2]): 7 nM
- IC50 (Androgen receptor [3]): > 10000 nM

Structure (SMILES): CC(C)C[C@H]1c2cc3c(C(F)(F)F)cc(=O)[nH]c3cc2NC[C@@H]1C (relative stereo)
- Ki (Androgen receptor [1]): 72 nM
- IC50 (Androgen receptor [4]): 29 nM
- EC50 (Androgen receptor [2]): 56 nM

Structure (SMILES): C[C@H]1CNc2cc3nc(O)cc(C(F)(F)F)c3cc2C1CCC(F)(F)F (stereo partly specified)
- Ki (Androgen receptor [1]): 2 nM
- EC50 (Androgen receptor [2]): 13 nM
- IC50 (Androgen receptor [3]): 61 nM

Structure (SMILES): CC1c2cc3c(C(F)(F)F)cc(O)nc3cc2NC[C@@H]1C (stereo partly specified)
- Ki (Androgen receptor [1]): 16 nM
- EC50 (Androgen receptor [2]): 10 nM
- IC50 (Androgen receptor [3]): > 10000 nM

Structure (SMILES): CC(C)CC1CCNc2cc3nc(O)cc(C(F)(F)F)c3cc21 (stereo unspecified)
- Ki (Androgen receptor [1]): 22 nM
- EC50 (Androgen receptor [2]): 25 nM
- IC50 (Androgen receptor [3]): > 10000 nM

Structure (SMILES): CCC1CCNc2cc3c(cc21)c(C(F)(F)F)cc(=O)n3C (stereo unspecified)
- Ki (Androgen receptor [1]): 9 nM
- IC50 (Androgen receptor [4]): 20 nM
- EC50 (Androgen receptor [2]): > 10000 nM

Structure (SMILES): CCC1c2cc3c(C(F)(F)F)cc(=O)[nH]c3cc2NC[C@@H]1C (stereo partly specified)
- Ki (Androgen receptor [1]): 8 nM
- IC50 (Androgen receptor [4]): 2710 nM
- EC50 (Androgen receptor [2]): 7 nM

Structure (SMILES): O=c1cc(C(F)(F)F)c2cc3c(cc2[nH]1)NCCC3c1cc(C(F)(F)F)cc(C(F)(F)F)c1 (stereo unspecified)
- Ki (Androgen receptor [1]): > 1000 nM
- IC50 (Androgen receptor [4]): 251 nM
- EC50 (Androgen receptor [2]): > 10000 nM

Structure (SMILES): Oc1cc(C(F)(F)F)c2cc3c(cc2n1)NC[C@@H]1CCCC[C@H]31
- Ki (Androgen receptor [1]): 2 nM
- IC50 (Androgen receptor [4]): > 10000 nM
- EC50 (Androgen receptor [2]): 3 nM
